# From patent US9765035B2 (priority 2013, dated 2017)
# pIC50: −log10 of the molar value. Like-named read-outs stand apart in the source and are kept apart here.
# Biological target: human PRMT8 (Homo sapiens, UniProt Q9NR22)
# Assay: biochemical
# Excerpt: General Materials. S-adenosylmethionine (SAM), S-adenosylhomocysteine (SAH), bicine, Tween20, dimethylsulfoxide (DMSO), bovine skin gelatin (BSG), isopropyl-β-D-thiogalactopyranoside (IPTG), and Tris(2-carboxyethyl)phosphine hydrochloride solution (TCEP) were purchased from Sigma-Aldrich at the highest level of purity possible. ^3H-SAM was purchase from American Radiolabeled Chemicals with a specific activity of 80 Ci/mmol. 384-well streptavidin Flashplates were purchased from PerkinElmer.
# Substrates. Peptide representative of human histone H4 residues 31-45 was synthesized with an N-terminal linker-affinity tag motif and a C-terminal amide cap by 21st Century Biochemicals. The peptide was purified by high-performance liquid chromatography (HPLC) to greater than 95% purity and confirmed by liquid chromatography mass spectrometry (LC-MS). The sequence was Biot-Ahx-[…]-amide (SEQ ID NO.:8).
# The resulting construct encodes an N-terminal GST tag and a thrombin cleavage sequence
# Protein Expression. E. coli (BL21(DE3) Gold, Stratagene) made competent by the CaCl2 method were transformed with the PRMT8 construct and ampicillin selection. Protein over-expression was accomplished by growing the PRMT8 expressing E. coli clone and inducing expression with 0.3 mM IPTG at 16° C. The culture was grown for 12 hours, harvested by centrifugation, and stored at −80° C. for purification.
# Protein Purification. […] GST-tagged PRMT8 was eluted with 50 mM Tris, 2 mM glutathione, pH 7.8. Pooled fractions were cleaved by thrombin (10 U) and dialysed in buffer A. GST was removed by reloading the cleaved protein sample onto glutathione sepharose column and PRMT8 was collected in the flow-through fractions. PRMT8 was purified further by ceramic hydroxyapatite chromatography. The column was washed with 50 mM phosphate buffer, 100 mM NaCl, 5% glycerol, 5 mM β-mercaptoethanol, pH 7.8 and PRMT8 was eluted by 100 mM phosphate in the same buffer. Protein was concentrated and buffer was exchanged to 50 mM Tris, 300 mM NaCl, 10% glycerol, 5 mM β-mercaptoethanol, pH 7.8 by ultrafiltration. The purity of recovered protein was 89%.
# General Procedure for PRMT8 Enzyme Assays on Peptide Substrates. The assays were all performed in a buffer consisting of 20 mM Bicine (pH=7.6), 1 mM TCEP, 0.005% BSG, and 0.002% Tween 20, prepared on the day of use. Compounds in 100% DMSO (1 ul) were spotted into a polypropylene 384-well V-bottom plates (Greiner) using a Platemate Plus outfitted with a 384-channel head (Thermo Scientific). DMSO (1 ul) was added to Columns 11, 12, 23, 24, rows A-H for the maximum signal control and 1 ul of SAH, a known product and inhibitor of PRMT8, was added to columns 11, 12, 23, 24, rows I-P for the minimum signal control. A cocktail (40 ul) containing the PRMT8 enzyme was added by Multidrop Combi (Thermo-Fisher). The compounds were allowed to incubate with PRMT8 for 30 min at room temperature, then a cocktail (10 ul) containing ^3H-SAM and peptide was added to initiate the reaction (final volume=51 ul). The final concentrations of the components were as follows: PRMT8 was 1.5 nM, ^3H-SAM was 50 nM, non-radiolabeled SAM was 550 nM, peptide was 150 nM, SAH in the minimum signal control wells was 1 mM, and the DMSO concentration was 2%. The assays were stopped by the addition of non-radiolabeled SAM (10 ul) to a final concentration of 400 uM, which dilutes the ^3H-SAM to a level where its incorporation into the peptide substrate is no longer detectable. 50 ul of the reaction in the 384-well polypropylene plate was then transferred to a 384-well Flashplate and the biotinylated peptides were allowed to bind to the streptavidin surface for at least 1 hour before being washed once with 0.1% Tween20 in a Biotek EL×405 plate washer. […]
# [1] = biochemical evaluation, peptide substrate, read-out: PRMT8 IC50
# [2] = single experiment or average of multiple experiments, read-out: PRMT8 biochemical evaluation (numerical)
# Chain of human PRMT8 (Q9NR22 whole entry): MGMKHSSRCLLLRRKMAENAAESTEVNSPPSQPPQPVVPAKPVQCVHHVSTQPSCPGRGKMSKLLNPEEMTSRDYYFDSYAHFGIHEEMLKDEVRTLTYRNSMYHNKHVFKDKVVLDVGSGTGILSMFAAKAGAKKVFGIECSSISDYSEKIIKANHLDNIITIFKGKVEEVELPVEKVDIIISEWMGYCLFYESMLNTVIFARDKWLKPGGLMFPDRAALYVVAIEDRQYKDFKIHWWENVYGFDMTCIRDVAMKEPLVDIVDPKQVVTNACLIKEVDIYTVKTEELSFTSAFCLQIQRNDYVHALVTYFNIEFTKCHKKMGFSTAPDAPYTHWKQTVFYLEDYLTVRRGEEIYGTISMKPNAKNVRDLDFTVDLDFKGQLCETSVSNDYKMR
SMILES,pIC50 [1],pIC50 [2]
"CNCCN(C)Cc1n[nH]c2ccc(N3CCCCC3)cc12 [Compound 46, N^1,N^2-dimethyl-N^1-((5-(piperidin-1-yl)-1H-indazol-3-yl)methyl)ethane-1,2-diamine]",> 7.00,7.01
CNCCN(C)Cc1n[nH]c2ccc(OC)cc12 [Compound 35],–,5.73
CNCCN(C)Cc1n[nH]c2ccc(Oc3cccc(OC)c3)cc12 [Compound 22],–,7.10
CNCCN(C)Cc1n[nH]c2ccc(OCC(C)c3ccccc3)cc12 (centres unmarked) [Compound 19],> 7.00,–
"CNCCN(C)Cc1n[nH]c2ccc(C3CCCCC3)cc12 [Compound 47, N^1-((5-cyclohexyl-1H-indazol-3-yl)methyl)-N^1,N^2-dimethylethane-1,2-diamine]",≥ 7.00,7.04
CNCCN(C)Cc1n[nH]c2ccc(C3=CCCCC3)cc12 [Compound 48],≥ 7.00,7.08
"CNCCN(C)Cc1n[nH]c2ccc(C(C)C)cc12 [Compound 42, N^1-((5-isopropyl-1H-indazol-3-yl)methyl)-N^1,N^2-dimethylethane-1,2-diamine]",6.00 to 7.00,5.54
CNCCN(C)Cc1n[nH]c2ccc(OCc3ccn(CC(C)C)n3)cc12 [Compound 33],5.52 to 6.00,6.56
CNCCN(C)Cc1n[nH]c2ccc(OCC3CCOCC3)cc12 [Compound 50],–,7.41
CN(CCN)Cc1n[nH]c2ccc(OCc3ccccc3)cc12 [Compound 1B],6.00 to 7.00,6.57
CNCCN(C)Cc1n[nH]c2ccc(OCc3ccc(C(C)=O)cc3)cc12 [Compound 23],–,7.37
CNCCN(C)Cc1n[nH]c2cccc(OCCC(C)C)c12 [Compound 31],6.00 to 7.00,–
CNCCN(C)Cc1n[nH]c2cccc(OCc3ccccc3)c12 [Compound 21],> 7.00,7.17
CNCCN(C)Cc1n[nH]c2ccc(C3=CCOCC3)cc12 [Compound 45],> 7.00,6.87
"CNCCN(C)Cc1n[nH]c2ccc(C3CCOCC3)cc12 [Compound 44, N^1,N^2-dimethyl-N^1-((5-(tetrahydro-2H-pyran-4-yl)-1H-indazol-3-yl)methyl)ethane-1,2-diamine]",> 7.00,6.63
"CC(C)COc1ccc2[nH]nc(CN(C)CCN)c2c1 [Compound 2, N1-((5-iso-butoxy-1H-indazol-3-yl)methyl)-N1-methylethane-1,2-diamine]",6.00 to 7.00,6.34
CNCCN(C)Cc1n[nH]c2ccc(OCc3ccn(C)n3)cc12 [Compound 20],> 7.00,–
"CNCCN(C)Cc1n[nH]c2cccc(OCCCC(O)CO)c12 (centres unmarked) [Compound 41, 5-((3-((methyl(2-(methylamino)ethyl)amino)methyl)-1H-indazol-4-yl)oxy)pentane-1,2-diol]",5.52 to 6.00,–
CNCCN(C)Cc1n[nH]c2ccc(Oc3ccccc3C(F)(F)F)cc12 [Compound 49],–,7.34
"CNCCN(C)Cc1n[nH]c2ccc(N3CCC4(CCCCC4)CC3)cc12 [Compound 43, N^1-((5-(3-azaspiro[5.5]undecan-3-yl)-1H-indazol-3-yl)methyl)-N^1,N^2-dimethylethane-1,2-diamine]",6.00 to 7.00,5.70
CNCCN(C)Cc1n[nH]c2cccc(OCCC(O)CO)c12 (centres unmarked) [Compound 40],5.52 to 6.00,–
